Patent US12398154B2, “Azaquinazoline pan-KRas inhibitors” (Mirati Therapeutics, Inc., priority 2020, dated 2025)

Key:
[1] = system: pERK in MKN1 cells; assay: Inhibition of KRas phosphorylation of ERK (Cisbio HTRF pERK assay); conditions: Homo sapiens, MKN-1, 3 h, read-out: Inhibition (HTRF IC50) of KRas-mediated Phosphorylation of ERK, MKN1
[2] = system: pERK in ASPC1 cells; assay: as above; conditions: Homo sapiens, ASPC1, read-out: Inhibition (HTRF IC50) of KRas-mediated Phosphorylation of ERK, AsPC-1
[3] = target: KRas G12D (Homo sapiens, UniProt P01116, G12D); assay: biochemical;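 also: TR-FRET displacement binding assay on KRas, read after a one-hour incubation at room temperature, IC50 fitted from percent-of-control values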
Method: (§2) The ability of a compound to bind to KRas was measured using a TR-FRET displacement assay. […] After a 60-minute incubation at room temperature, the reaction was measured using a BMG LABTECH CLARIO star Plus via TR-FRET. […] The POC values were fit to a 4-parameter IC50 equation and the IC50 value reported.

[4] = system: pERK in PSN1 cells; assay: Inhibition of KRas phosphorylation of ERK (Cisbio HTRF pERK assay); conditions: Homo sapiens, PSN1, 3 h, read-out: Inhibition (HTRF IC50) of KRas-mediated Phosphorylation of ERK, PSN1
[5] = target: KRas G12V (Homo sapiens, UniProt P01116, G12V); assay: biochemical;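 also: KRas binding measured by TR-FRET displacement at room temperature, IC50 fitted from percent of control values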
Method: as §2

[6] = system: pERK in HCT116 cells; assay: Inhibition of KRas phosphorylation of ERK (Cisbio HTRF pERK assay); conditions: Homo sapiens, HCT-116, read-out: Inhibition (HTRF IC50) of KRas-mediated Phosphorylation of ERK, HCT116
Method: (§3) To harvest cells from flask using 0.05% Trypsin/EDTA solution. Add 10 mL of media to stop trypsinizing. Pipette the cells into a conical bottom 50 mL centrifuge tube and centrifuge 5 min×1000 rpm. • 2. Re-suspend the cell pellet in media, take a cell count, and then adjust the cell density using fresh media. • 3. Seed 6,000 cells into cell culture plate with 50 μL media. […] Incubate cell plate overnight in a 37° C., 5% CO2 incubator. • Compound titrations • 1. Use Tecan to complete the compound addition. Compounds start from 10 uM top, 3-fold dilution, and 10 doses. The final DMSO concentration is 0.8%. Dispensed 0.2 uM Trametinib as Min control. • 2. Incubate cell plate for 3 hrs in the incubator. • Detection with cisbio pERK HTRF kit • 1. […] At the end of the compound treatment, flick-off the media. • 3. Add 35 μL of lysis buffer per well using a Multidrop Combi. Then place on a plate agitator shaking at 300 rpm at 4° C. for 40 mins. • 4. Make up the HTRF antibody buffer. For each assay plate, mix 50 μL of d2-conjugate antibody with 950 μL of detection buffer. Similarly, mix 50 μL of Cryptate antibody with 950 μL of detection buffer. Then mix the two diluted antibodies together. • 5. Dispense 3.4 μL the antibody buffer to wells of an empty assay plate. Seal the plate and centrifuge plate 30 sec×1000 rpm. • 6. At the end of the 4° C. lysis, centrifuge the lysate plates 3 mins×1500 rpm. • 7. Use the Bravo to transfer 13.6 μL of lysate from cell culture plate to assay plate.
(§4) Then incubate assay plate for 2 hrs at room temperature. […] At the end of incubation, read plate on the Envision after centrifuging plate 30 sec× • 1000 rpm.

[7] = system: pERK in H358 cells; assay: as above; conditions: Homo sapiens, NCI-H358, read-out: Inhibition (HTRF IC50) of KRas-mediated Phosphorylation of ERK, H358
[8] = system: pERK in H460 cells; assay: as above; conditions: Homo sapiens, NCI-H460, read-out: Inhibition (HTRF IC50) of KRas-mediated Phosphorylation of ERK, H460
Method: as §3, §4

[9] = target: KRas G12R (Homo sapiens, UniProt P01116, G12R); assay: biochemical;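 also: TR-FRET displacement assay of compound binding to KRas, read after one hour at room temperature, potency from a four-parameter fit of percent-of-control values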
Method: as §2

[10] = system: pERK in H727 cells; assay: Inhibition of KRas phosphorylation of ERK (Cisbio HTRF pERK assay); conditions: Homo sapiens, NCI-H727, read-out: Inhibition (HTRF IC50) of KRas-mediated Phosphorylation of ERK, H727
Method: as §3, §4

[11] = system: pERK in A549 cells; assay: as above; conditions: Homo sapiens, A549, read-out: Inhibition (HTRF IC50) of KRas-mediated Phosphorylation of ERK, A549
Method: as §3, §4

[12] = system: phospho-ERK in AsPC-1 (G12D) cells; assay: Inhibition of KRas-mediated phosphorylation of ERK (in-cell western); type: cell-based; conditions: Homo sapiens, ASPC1, 3 h, 3 hours compound, phospho-ERK normalized to GAPDH
How it was run: (§1)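 Fixed-cell immunodetection of ERK phosphorylation following 3 h compound treatment (0.5% DMSO). IC50 derived by 4-parameter fit of GAPDH-normalized signal versus DMSO control.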

[13] = system: phospho-ERK in NCI-H727 (G12V) cells; assay: as above; type: cell-based; conditions: Homo sapiens, NCI-H727, 3 h, 3 hours compound, phospho-ERK normalized to GAPDH
How it was run: as §1

[14] = system: phospho-ERK in NCI-H460 (Q61H) cells; assay: as above; type: cell-based; conditions: Homo sapiens, NCI-H460, 3 h, 3 hours compound, phospho-ERK normalized to GAPDH
How it was run: as §1

KRas G12D, sequence (P01116 1-169 isoform P01116-2 G12D): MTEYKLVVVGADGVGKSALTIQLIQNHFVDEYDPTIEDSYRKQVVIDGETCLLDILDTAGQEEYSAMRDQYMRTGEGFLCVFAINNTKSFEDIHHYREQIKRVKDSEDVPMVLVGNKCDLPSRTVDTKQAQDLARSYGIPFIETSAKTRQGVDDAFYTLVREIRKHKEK
KRas G12R, sequence (P01116 1-169 isoform P01116-2 G12R): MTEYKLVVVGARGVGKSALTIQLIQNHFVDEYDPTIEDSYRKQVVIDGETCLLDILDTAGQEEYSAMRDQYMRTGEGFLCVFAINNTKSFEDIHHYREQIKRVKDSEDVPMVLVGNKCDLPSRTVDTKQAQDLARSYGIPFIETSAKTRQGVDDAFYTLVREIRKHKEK
KRas G12V, sequence (P01116 1-169 isoform P01116-2 G12V): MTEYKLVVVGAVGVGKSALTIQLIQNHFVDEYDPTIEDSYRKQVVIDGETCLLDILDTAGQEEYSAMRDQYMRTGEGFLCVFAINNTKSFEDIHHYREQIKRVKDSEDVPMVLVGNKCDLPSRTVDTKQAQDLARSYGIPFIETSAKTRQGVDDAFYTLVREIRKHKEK

Structure (SMILES)	IC50 [1] [nM]	IC50 [2] [nM]	IC50 [3] [nM]	IC50 [4] [µM]	IC50 [5] [nM]	IC50 [6] [nM]	IC50 [7] [nM]	IC50 [8] [nM]	IC50 [9] [nM]	IC50 [10] [nM]	IC50 [11] [nM]	IC50 [12] [nM]	IC50 [13] [nM]	IC50 [14] [nM]
O=S1(=O)NCC2(CCCN(c3nc(OC[C@@]45CCCN4C[C@H](F)C5)nc4c(F)c(-c5cc(O)cc6ccc(F)c(Br)c56)ncc34)C2)N1 (stereo partly drawn) [Example 411, 7-(7-(8-bromo-7-fluoro-3-hydroxynaphthalen-1-yl)-8-fluoro-2-(((2R,7aS)-2-fluorohexahydro-1H-pyrrolizin-7a-yl)methoxy)pyrido[4,3-d]pyrimidin-4-yl)-2-thia-1,3,7-triazaspiro[4.5]decane 2,2-dioxide]	40	63	≤ 2	0.146	≤ 2	92	9	48	≤ 2	83	–	–	–	–
O=C1CC2(CCCN(c3nc(OC[C@@]45CCCN4C[C@H](F)C5)nc4c(F)c(-c5cc(O)cc6ccc(F)c(F)c56)ncc34)C2)N1 (stereo partly drawn) [Example 452, 6-(7-(7,8-difluoro-3-hydroxynaphthalen-1-yl)-8-fluoro-2-(((2R,7aS)-2-fluorohexahydro-1H-pyrrolizin-7a-yl)methoxy)pyrido[4,3-d]pyrimidin-4-yl)-1,6-diazaspiro[3.5]nonan-2-one]	41	204	4	4.08	≤ 2	1510	–	639	≤ 2	165	224	182	793	154
CCc1c(F)ccc2cc(O)cc(-c3ncc4c(N5CCCn6nc(C(=O)N(C)C)c(F)c6C5)nc(OC[C@@]56CCCN5C[C@H](F)C6)nc4c3F)c12 [Example 505, 5-(7-(8-ethyl-7-fluoro-3-hydroxynaphthalen-1-yl)-8-fluoro-2-(((2R,7aS)-2-fluorohexahydro-1H-pyrrolizin-7a-yl)methoxy)pyrido[4,3-d]pyrimidin-4-yl)-3-fluoro-N,N-dimethyl-5,6,7,8-tetrahydro-4H-pyrazolo[1,5-a][1,4]diazepine-2-carboxamide]	31	14	≤ 2	≥ 10	≤ 2	–	16	327	≤ 2	50	–	–	–	–
CCc1c(F)ccc2cc(O)cc(-c3ncc4c(N5CCOCC(O)C5)nc(OC[C@@]56CCCN5C[C@H](F)C6)nc4c3F)c12 (stereo partly drawn) [Example 345, 4-(7-(8-ethyl-7-fluoro-3-hydroxynaphthalen-1-yl)-8-fluoro-2-(((2R,7aS)-2-fluorotetrahydro-1H-pyrrolizin-7a(5H)-yl)methoxy)pyrido[4,3-d]pyrimidin-4-yl)-1,4-oxazepan-6-ol]	13	83	–	8.79	–	296	20	82	–	138	–	–	–	–
O=C1NC(=O)C2(CCCN(c3nc(OC[C@@]45CCCN4C[C@H](F)C5)nc4c(F)c(-c5cc(O)cc6ccc(F)c(F)c56)ncc34)C2)N1 (stereo partly drawn) [Example 444, 7-(7-(7,8-difluoro-3-hydroxynaphthalen-1-yl)-8-fluoro-2-(((2R,7aS)-2-fluorohexahydro-1H-pyrrolizin-7a-yl)methoxy)pyrido[4,3-d]pyrimidin-4-yl)-1,3,7-triazaspiro[4.5]decane-2,4-dione]	37	1690	5	≥ 10	≤ 2	1760	–	1560	≤ 2	1160	734	2440	1740	656
CCc1c(F)ccc2cc(O)cc(-c3ncc4c(N5CCCC6(CCC(O)C6)C5)nc(OC[C@@]56CCCN5C[C@H](F)C6)nc4c3F)c12 (stereo partly drawn) [Example 510, 7-(7-(8-ethyl-7-fluoro-3-hydroxynaphthalen-1-yl)-8-fluoro-2-(((2R,7aS)-2-fluorotetrahydro-1H-pyrrolizin-7a(5H)-yl)methoxy)pyrido[4,3-d]pyrimidin-4-yl)-7-azaspiro[4.5]decan-2-ol]	73	186	10	5.1	8	954	–	397	9	388	515	–	–	–
CCc1c(F)ccc2cc(O)cc(-c3ncc4c(N5CCOCC(OC)C5)nc(OC[C@@]56CCCN5C[C@H](F)C6)nc4c3F)c12 (stereo partly drawn) [Example 499, 5-ethyl-6-fluoro-4-(8-fluoro-2-(((2R,7aS)-2-fluorotetrahydro-1H-pyrrolizin-7a(5H)-yl)methoxy)-4-(6-methoxy-1,4-oxazepan-4-yl)pyrido[4,3-d]pyrimidin-7-yl)naphthalen-2-ol]	13	109	27	≥ 10	8	474	–	162	6	100	145	–	–	–
O=C1CC2(CCCN(c3nc(OC[C@@]45CCCN4C[C@H](F)C5)nc4c(F)c(-c5cc(O)cc6ccc(F)c(Br)c56)ncc34)C2)N1 (stereo partly drawn) [Example 405, 6-(7-(8-bromo-7-fluoro-3-hydroxynaphthalen-1-yl)-8-fluoro-2-(((2R,7aS)-2-fluorohexahydro-1H-pyrrolizin-7a-yl)methoxy)pyrido[4,3-d]pyrimidin-4-yl)-1,6-diazaspiro[3.5]nonan-2-one]	45	238	≤ 2	6.73	≤ 2	2210	–	155	≤ 2	114	247	–	–	–
CCc1c(F)ccc2cc(O)cc(-c3ncc4c(N5CCCC6(COC(=O)N6)C5)nc(OC[C@@]56CCCN5C[C@H](F)C6)nc4c3F)c12 (stereo partly drawn) [Example 478, 7-(7-(8-ethyl-7-fluoro-3-hydroxynaphthalen-1-yl)-8-fluoro-2-(((2R,7aS)-2-fluorohexahydro-1H-pyrrolizin-7a-yl)methoxy)pyrido[4,3-d]pyrimidin-4-yl)-3-oxa-1,7-diazaspiro[4.5]decan-2-one]	80	192	≤ 2	≥ 10	≤ 2	5430	–	713	5	871	1250	–	–	–
C#Cc1c(F)ccc2cc(O)cc(-c3ncc4c(N5CCCn6nc(N)cc6C5)nc(OC[C@@]56CCCN5C[C@H](F)C6)nc4c3F)c12 [Example 394, 4-(4-(2-amino-7,8-dihydro-4H-pyrazolo[1,5-a][1,4]diazepin-5(6H)-yl)-8-fluoro-2-(((2R,7aS)-2-fluorohexahydro-1H-pyrrolizin-7a-yl)methoxy)pyrido[4,3-d]pyrimidin-7-yl)-5-ethynyl-6-fluoronaphthalen-2-ol]	46	158	≤ 2	≥ 10	≤ 2	1720	–	1070	≤ 2	368	567	–	–	–
